Molecular target: HCV NS3 protease (UniProt P26663)
Type: biochemical, HCV genotype 1b
Parameters: rows headed: IC50 (μM); IC50 (μM)
Settings: Table 3
Protocol: Recombinant HCV NS3 Protease/NS4A Cofactor Peptide Radiometric Assay
The enzyme was cloned, expressed and prepared according to the protocol described in Example 36. The enzyme was stored at −80° C., thawed on ice and diluted just prior to use in the assay buffer containing the NS4A cofactor peptide.
The substrate used for the NS3 protease/NS4A cofactor peptide radiometric assay, DDIVPC-SMSYTW, is cleaved between the cysteine and the serine residues by the enzyme. The sequence DDIVPC-SMSYTW corresponds to the NS5A/NS5B natural cleavage site in which the cysteine residue in P2 has been substituted for a proline. […] (molar ratio enzyme:cofactor 1:100) in the absence or presence of inhibitors. The separation of substrate from products is performed by adding avidin-coated agarose beads to the assay mixture followed by filtration. The amount of SMS[^125I-Y]TW product found in the filtrate allows for the calculation of the percentage of substrate conversion and of the percentage of inhibition.
The enzymatic reaction was initiated by the addition of the enzyme/NS4A peptide solution and the assay mixture was incubated for 40 min at 23° C. under gentle agitation. Ten (10) μL of 0.5N NaOH were added and 10 μL 1 M MES, pH 5.8 were added to quench the enzymatic reaction.
A non-linear curve fit with the Hill model was applied to the inhibition-concentration data, and the 50% effective concentration (IC50) was calculated by the use of SAS software (Statistical Software System; SAS Institute, Inc. Cary, N.C.). […]
The NS2-NS5B-3′ non coding region was cloned by RT-PCR into the pCR®3 vector (Invitrogen) using RNA extracted from the serum of an HCV genotype 1b infected individual (provided by Dr. Bernard Willems, Hôpital St-Luc, Montréal, Québec, Canada). The NS3-NS4A DNA region was then subcloned by PCR into the pFastBac™ HTa baculovirus expression vector (Gibco/BRL). The vector sequence includes a region encoding a 28-residue N-terminal sequence which contains a hexahistidine tag. The Bac-to-Bac™ baculovirus expression system (Gibco/BRL) was used to produce the recombinant baculovirus. The full length mature NS3 and NS4A heterodimer protein (His-NS3-NS4AFL) was expressed by infecting 10^6 Sf21 cells/mL with the recombinant baculovirus at a multiplicity of infection of 0.1-0.2 at 27° C. The infected culture was harvested 48 to 64 h later by centrifugation at 4° C. The cell pellet was homogenized in 50 mM NaPO4, pH 7.5, 40% glycerol (w/v), 2 mM β-mercaptoethanol, in presence of a cocktail of protease inhibitors. His-NS3-NS4AFL was then extracted from the cell lysate with 1.5% NP-40, 0.5% Triton X-100, 0.5M NaCl, and a DNase treatment. After ultracentrifugation, the soluble extract was diluted 4-fold and bound on a Pharmacia Hi-Trap Ni-chelating column. […] The His-NS3-NS4AFL was stored at −80° C. in 50 mM sodium phosphate, pH 7.5, 10% (w/v) glycerol, 0.5 M NaCl, 0.25 M imidazole, 0.1% NP-40. It was thawed on ice and diluted just prior to use. The protease activity of His-NS3-NS4AFL was assayed in 50 mM Tris-HCl, pH 8.0, 0.25 M sodium citrate, 0.01% (w/v) n-dodecyl-β-D-maltoside, 1 mM TCEP. Five (5) μM of the internally quenched substrate anthranilyl-DDIVPAbu[C(O)—O]-AMY(3-NO2)TW-OH in presence of various concentrations of inhibitor were incubated with 1.5 nM of His-NS3-NS4AFL for 45 min at 23° C. […] The reaction was terminated with the addition of 1M MES, pH 5.8. Fluorescence of the N-terminal product was monitored on a Perkin-Elmer LS-50B fluorometer equipped with a 96-well plate reader (excitation wavelength: 325 nm; emission wavelength: 423 nm).
The following tables list compounds representative of the invention.

HCV NS3 protease, sequence (P26663 1027-1206, other chains not shown): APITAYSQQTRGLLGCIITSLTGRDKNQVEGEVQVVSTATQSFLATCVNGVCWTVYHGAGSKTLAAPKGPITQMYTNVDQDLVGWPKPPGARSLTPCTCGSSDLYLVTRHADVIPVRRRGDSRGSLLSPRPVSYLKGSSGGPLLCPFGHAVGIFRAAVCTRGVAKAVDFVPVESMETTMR

Row | SMILES | IC50 [nM]
1 | CCC1CC1(NC(=O)C1CC(OCc2cccc3ccccc23)CN1C(=O)C(NC(=O)OC(C)(C)C)C1CCCCC1)C(=O)O (centres unmarked) [compound 301] | 7700
2 | CC[C@H]1C[C@]1(NC(=O)[C@@H]1C[C@@H](OCc2cccc3ccccc23)CN1C(=O)[C@@H](NC(=O)OCC(C)C)C(C)C)C(=O)O [compound 302] | 12500
3 | CC[C@H]1C[C@]1(NC(=O)[C@@H]1C[C@@H](OCc2cccc3ccccc23)CN1C(=O)[C@@H](NC(=O)OCC(C)C)C1CCCCC1)C(=O)O [compound 303] | 11000
4 | C=C[C@H]1C[C@]1(NC(=O)[C@@H]1C[C@@H](OCc2cccc3ccccc23)CN1C(=O)[C@@H](NC(=O)OC(C)(C)C)C1CCCCC1)C(=O)O [compound 305] | 3200
5 | C=C[C@H]1C[C@]1(NC(=O)[C@@H]1C[C@@H](Oc2ccnc3ccccc23)CN1C(=O)[C@@H](NC(=O)OC(C)(C)C)C1CCCCC1)C(=O)O [compound 306] | 800
6 | C=C[C@H]1C[C@]1(NC(=O)[C@@H]1CC(Oc2cc(-c3ccccc3)nc3ccc([N+](=O)[O-])cc23)CN1C(=O)[C@@H](NC(=O)OC(C)(C)C)C1CCCCC1)C(=O)O (some centres unmarked) [compound 307] | 270
7 | C=C[C@H]1C[C@]1(NC(=O)[C@@H]1C[C@@H](Oc2cccc3ccccc23)CN1C(=O)[C@@H](NC(=O)OC(C)(C)C)C1CCCCC1)C(=O)O [compound 308] | 1600
8 | C=C[C@H]1C[C@]1(NC(=O)[C@@H]1C[C@@H](Oc2ccc3ccccc3c2)CN1C(=O)[C@@H](NC(=O)OC(C)(C)C)C1CCCCC1)C(=O)O [compound 309] | 5000

Same assay, conditions: Table 4

Row | SMILES | IC50 [nM]
9 | COc1ccc2c(OC3C[C@@H](C(=O)NC4(C(=O)O)CCC4)N(C(=O)[C@@H](NC(=O)OC(C)(C)C)C(C)(C)C)C3)cc(-c3ccccc3)nc2c1 (some centres unmarked) [compound 403] | 132

Same assay, conditions: Table 5

Row | SMILES | IC50 [nM]
10 | C=CC1C[C@]1(NC(=O)[C@@H]1C[C@@H](Oc2ccnc3ccccc23)CN1C(=O)[C@@H](NC(=O)OC(C)(C)C)C(C)(C)C)C(=O)O (some centres unmarked) [compound 501] | 400
11 | C=CC1CC1(NC(=O)C1CC(Oc2ccnc3ccccc23)CN1C(=O)C(NC(=O)OC(C)(C)C)C(C)OC(C)(C)C)C(=O)O (centres unmarked) [compound 503] | 790
12 | C=CC1CC1(NC(=O)C1CC(Oc2ccnc3ccccc23)CN1C(=O)C(NC(=O)OC(C)(C)C)C(C)OC)C(=O)O (centres unmarked) [compound 505] | 790
13 | C=CC1CC1(NC(=O)C1CC(Oc2ccnc3ccccc23)CN1C(=O)C(NC(=O)OC(C)(C)C)C(C)OCc1ccccc1)C(=O)O (centres unmarked) [compound 506] | 1300
14 | C=CC1CC1(NC(=O)C1CC(Oc2ccnc3ccccc23)CN1C(=O)C(NC(=O)OC(C)(C)C)C(C)(C)SCNC(C)=O)C(=O)O (centres unmarked) [compound 507] | 980
15 | C=CC1CC1(NC(=O)C1CC(Oc2ccnc3ccccc23)CN1C(=O)C(NC(=O)OC(C)(C)C)C(C)(C)SCc1ccc(C)cc1)C(=O)O (centres unmarked) [compound 508] | 3100
16 | C=CC1CC1(NC(=O)C1CC(Oc2ccnc3ccccc23)CN1C(=O)C(NC(=O)OC(C)(C)C)C(C)CC)C(=O)O (centres unmarked) [compound 509] | 377
17 | C=CC1CC1(NC(=O)C1CC(Oc2ccnc3ccccc23)CN1C(=O)C(NC(=O)OC(C)(C)C)C(C)CC)C(=O)O (centres unmarked) [compound 510] | 255
18 | C=CC1CC1(NC(=O)C1CC(Oc2ccnc3ccccc23)CN1C(=O)C(NC(=O)OC(C)(C)C)C(O)C1CCCCC1)C(=O)O (centres unmarked) [compound 511] | 2100

Same assay, conditions: Table 6

Row | SMILES | IC50 [nM]
19 | C=CC1CC1(NC(=O)C1CC(Oc2cc(-c3ccccc3)nc3c(OC)c(OC)ccc23)CN1C(=O)C(NC(=O)OC(C)(C)C)C(C)(C)C)C(=O)O (centres unmarked) [compound 602] | 41
20 | C=CC1CC1(NC(=O)C1CC(Oc2cc(-c3ccccc3)nc3cc(CC)ccc23)CN1C(=O)C(NC(=O)OC(C)(C)C)C(C)C)C(=O)O (centres unmarked) [compound 603] | 195
21 | C=CC1CC1(NC(=O)C1CC(Oc2ccnc3cc(OC)ccc23)CN1C(=O)C(NC(=O)OC(C)(C)C)C(C)(C)C)C(=O)O (centres unmarked) [compound 604] | 73
22 | C=CC1CC1(NC(=O)C1CC(Oc2cc(-c3ccccc3)nc3cc(OC(C)C)ccc23)CN1C(=O)C(NC(=O)OC(C)(C)C)C(C)(C)C)C(=O)O (centres unmarked) [compound 605] | 195
23 | C=CC1CC1(NC(=O)C1CC(Oc2ccnc3cc(Cl)ccc23)CN1C(=O)C(NC(=O)OC(C)(C)C)C(C)(C)C)C(=O)O (centres unmarked) [compound 606] | 480
24 | C=CC1CC1(NC(=O)C1CC(Oc2ccnc3cc(Cl)ccc23)CN1C(=O)C(NC(=O)OC(C)(C)C)C(C)C)C(=O)O (centres unmarked) [compound 607] | 450
25 | C=CC1CC1(NC(=O)C1CC(Oc2ccnc3cc(Cl)ccc23)CN1C(=O)C(CC(C)C)NC(=O)OC(C)(C)C)C(=O)O (centres unmarked) [compound 608] | 1450
26 | C=CC1CC1(NC(=O)C1CC(Oc2cc(CN3CCOCC3)nc3ccccc23)CN1C(=O)C(NC(=O)OC(C)(C)C)C(C)(C)C)C(=O)O (centres unmarked) [compound 609] | 1700
27 | C=CC1CC1(NC(=O)C1CC(Oc2cc(Cl)nc3ccccc23)CN1C(=O)C(NC(=O)OC(C)(C)C)C(C)(C)C)C(=O)O (centres unmarked) [compound 610] | 250
28 | C=CC1CC1(NC(=O)C1CC(Oc2cc(-c3ccccc3)nc3cc(N(C)C)ccc23)CN1C(=O)C(NC(=O)OC(C)(C)C)C(C)(C)C)C(=O)O (centres unmarked) [compound 611] | 35
29 | C=CC1CC1(NC(=O)C1CC(Oc2cc(N3CCOCC3)nc3ccccc23)CN1C(=O)C(NC(=O)OC(C)(C)C)C(C)(C)C)C(=O)O (centres unmarked) [compound 612] | 278
30 | C=CC1CC1(NC(=O)C1CC(Oc2cc(N3CCCC3)nc3ccccc23)CN1C(=O)C(NC(=O)OC(C)(C)C)C(C)(C)C)C(=O)O (centres unmarked) [compound 613] | 1000
31 | C=CC1CC1(NC(=O)C1CC(Oc2cc(CN3CCCC3)nc3ccccc23)CN1C(=O)C(NC(=O)OC(C)(C)C)C(C)(C)C)C(=O)O (centres unmarked) [compound 614] | 2200
32 | C=CC1CC1(NC(=O)C1CC(Oc2ccnc3cc(N(C)C)ccc23)CN1C(=O)C(NC(=O)OC(C)(C)C)C(C)(C)C)C(=O)O (centres unmarked) [compound 615] | 160
33 | C=CC1CC1(NC(=O)C1CC(Oc2cc(N3CCCCC3)nc3ccccc23)CN1C(=O)C(NC(=O)OC(C)(C)C)C(C)(C)C)C(=O)O (centres unmarked) [compound 617] | 345
34 | C=CC1CC1(NC(=O)C1CC(Oc2cc(CN(C)C)nc3ccccc23)CN1C(=O)C(NC(=O)OC(C)(C)C)C(C)(C)C)C(=O)O (centres unmarked) [compound 618] | 2300
35 | C=CC1CC1(NC(=O)C1CC(Oc2cc(-c3csc(C)n3)nc3ccccc23)CN1C(=O)C(NC(=O)OC(C)(C)C)C(C)(C)C)C(=O)O (centres unmarked) [compound 621] | 58
36 | C=CC1CC1(NC(=O)C1CC(Oc2cc(OCC)nc3ccccc23)CN1C(=O)C(NC(=O)OC(C)(C)C)C(C)(C)C)C(=O)O (centres unmarked) [compound 622] | 160
37 | C=CC1CC1(NC(=O)C1CC(Oc2cc(OC)nc3ccccc23)CN1C(=O)C(NC(=O)OC(C)(C)C)C(C)(C)C)C(=O)O (centres unmarked) [compound 623] | 200
38 | C=CC1CC1(NC(=O)C1CC(Oc2cc(N(C)C)nc3ccccc23)CN1C(=O)C(NC(=O)OC(C)(C)C)C(C)(C)C)C(=O)O (centres unmarked) [compound 624] | 1300
39 | C=CC1CC1(NC(=O)C1CC(Oc2cc(-c3ccccc3)nc3cc(SC)ccc23)CN1C(=O)C(NC(=O)OC(C)(C)C)C(C)(C)C)C(=O)O (centres unmarked) [compound 625] | 160
40 | C=CC1CC1(NC(=O)C1CC(Oc2cc(-c3ccccc3)nc3cc(Br)ccc23)CN1C(=O)C(NC(=O)OC(C)(C)C)C(C)(C)C)C(=O)O (centres unmarked) [compound 626] | 240
41 | C=CC1CC1(NC(=O)C1CC(Oc2cc(-c3ccccc3)nc3cc(F)ccc23)CN1C(=O)C(NC(=O)OC(C)(C)C)C(C)(C)C)C(=O)O (centres unmarked) [compound 627] | 330
